# Data as given in patent publication US20030203969A1, “Pharmaceutically active aromatic guanylhydrazones” (priority 2000, published 2003).
# Legend:
# [1] = system: T-cell-tropic HIV-1NL4/3 strain; test: Inhibition of T-cell-tropic HIV-1 NL4/3 replication in de novo infected Jurkat cells (p24 antigen); type: cell-based
# Description: (§1) HIV replication was measured either by p24 HIV Antigen Capture Assay Kit (ELISA; HIVAG-1 Monoclonal kit BIA011; Abbott) following the manufacturer's recommendation, or by using the Quantiplex HIV-1 RNA 3.0 Assay (bDNA) system (Chiron Diagnostics). The latter assay is a signal amplification nucleic acid probe assay (employing a sandwich nucleic acid hybridization procedure) for direct quantitation of HIV RNA in human plasma. There, in brief, HIV-1 is first concentrated from plasma by centrifugation. After release of genomic HIV-1 RNA from the virions, the RNA is captured to a microwell by a set of specific, synthetic oligonucleotide capture probes. A set of target probes hybridize to both the viral RNA and the pre-amplifier probes. The capture probes, comprised of 17 individual capture extenders, and the target probes, comprised of 81 individual target extenders, bind to different regions of the pol gene of the viral RNA. The amplifier probe hybridizes to the pre-amplifier forming a branched DNA (bDNA) complex. Then, multiple copies of an alkaline phosphatase labeled probe are hybridized to this immobilized bDNA complex. Detection is achieved by incubating the entire complex with a chemoluminescent substrate. Light emission is directly proportional to the amount of HIV-1 RNA present in each sample, and results are recorded as relative light units by an appropriate analyzer.
# (§2) Jurkat cells (species: human T-cell leukemia; special characteristics: cells are permissive for growth of T-cell tropic HIV strains; source:ATCC Cat.No. TIB 152) or PM1 cells (species: clonal derivative of human HUT 78 cells; special characteristics: cells are permissive for growth of macrophage-tropic and T-cell tropic HIV strains; source: Dr. Marvin Reitz, courtesy of the NIH AIDS Research and Reference Reagent Program Cat.No. 3038) were stimulated with Phytohemagglutinin (PHA-P, Product No. L9132 from Sigma) in a concentration of 2 μg/ml (1.5×10^6 cells/ml) and Hexadimethrine Bromide (Polybrene, Product No. H9268 from Sigma) in a concentration of 2 μg/ml (1.5×10^6 cells/ml) in RPMI 1640 medium containing 10% fetal calf serum (FCS, Pansystems GmbH) and antibiotics for 3 days.
# (§3) For HIV-1 infection, 5×10^7 cells were resuspended in 500 μl culture medium without test drugs and incubated in a 50 ml blue-cap-tube at 37° C. for 5 hrs with HIV-1 high titer viral stocks. Jurkat cells were infected with the T-cell tropic strain HIV-1 NL4-3, PM1 cells with the macrophage tropic strain HIV-1 Ba-L (both from the NIH AIDS Research and Reference Reagent Program). After infection, cells were washed twice with PBS without Ca^2+ and Mg^2+ to avoid false positive p24 antigen determination. Cells were resuspended, and identical aliquots (1×10^6/ml) of infected cells were further cultured in 10 ml medium with test drugs at various concentrations, or in medium with DMSO as control for calculation of the inhibition of virus replication (in %].
# (§4) Culture medium was changed and cells were split at days 3 and 7 of the experiments. Viability of the cells (Trypan-blue staining), cell counts and p24 antigen levels were determined at days 3, 7 and 10 of the experiments. No significant differences in cell viability were observed (˜85-90% living cells).
# (§5) At day 10 of infection, the HIV strains replicated vigorously in untreated cultures. Numbers describe percent inhibition of HIV replication as compared to control experiments.
# [2] = system: macrophage-tropic HIV-1Ba-L strain; test: Inhibition of macrophage-tropic HIV-1 Ba-L replication in de novo infected PM1 cells (p24 antigen); type: cell-based
# Description: as §1, §2, §3, §4, §5
# E. Coli XL-1 blue strain = test: Growth assay for E. coli (optical density at 610 nm); type: cell-based; details: LB medium, 37° C., one day; read-out: IC50 (μM) E. coli proliferation
# Description: We used the E. Coli XL-1 blue strain (Stratagene) for the investigation of antibacterial activity. During this experiments LB medium was used for E. coil growth. LB was prepared as follows: 1% trypton (weight/volume), 0.5% Yeast extract (weight/volume), and 1.5% NaCl (weight/volume) were dissolved in water and autoclaved. The media contained the inhibitor at 100 μM, 10 μM, or 1 μM concentrations, respectively.
# The assay was performed as follows: bacteria were seeded to 96-well plates containing the respective inhibitors. The bacteria-containing plates were incubated at 37° C. for one day. After incubation time, E. coli growth was assayed by the measurement of the optical density at 610 nm wavelength.
# [3] = target: T1, deoxyhypusine synthase (DHS) (Homo sapiens, UniProt P49366); test: In vitro DHS screening assay (hypusine formation on eIF-5A); type: biochemical
# T1 construct: made in house; host or cells: E. coli BL21 (DE3), pGex vector
# T1 sequence (P49366 1-369): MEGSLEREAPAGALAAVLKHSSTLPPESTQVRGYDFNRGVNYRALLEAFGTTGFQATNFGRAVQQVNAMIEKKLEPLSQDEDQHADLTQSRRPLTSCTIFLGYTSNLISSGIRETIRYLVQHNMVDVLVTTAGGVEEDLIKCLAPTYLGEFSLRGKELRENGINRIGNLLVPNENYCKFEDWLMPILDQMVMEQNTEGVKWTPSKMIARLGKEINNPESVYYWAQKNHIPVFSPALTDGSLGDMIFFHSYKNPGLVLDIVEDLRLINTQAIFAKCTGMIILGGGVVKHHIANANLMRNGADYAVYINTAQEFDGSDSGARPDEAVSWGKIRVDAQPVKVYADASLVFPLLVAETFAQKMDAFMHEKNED
Structure (SMILES),"percent inhibition of HIV replication as compared to control ([1]; HIV-1 NL4/3, 1.0 μM, d7) [%]","percent inhibition of HIV replication as compared to control ([1]; HIV-1 NL4/3, 1.0 μM, d10) [%]","percent inhibition of HIV replication as compared to control ([1]; HIV-1 NL4/3, 5.0 μM, d7) [%]","percent inhibition of HIV replication as compared to control ([1]; HIV-1 NL4/3, 5.0 μM, d10) [%]","percent inhibition of HIV replication as compared to control ([2]; 1.0 μM, d7) [%]","percent inhibition of HIV replication as compared to control ([2]; 1.0 μM, d10) [%]","percent inhibition of HIV replication as compared to control ([2]; 5.0 μM, d7) [%]","percent inhibition of HIV replication as compared to control ([2]; 5.0 μM, d10) [%]",IC50 (E. Coli XL-1 blue strain) [µM],inhibition of the hypusine formation on the elF-5A protein [3]
"C/C(=N\N=C(N)N)c1ccc(NC(=O)Nc2cc(/C(C)=N/N=C(N)N)cc(/C(C)=N/N=C(N)N)c2)cc1 [Compound 1, N-(4-acetylphenyl)-N′-(3,5-diacetylphenyl)urea tris (amidinohydrazone)]",15,5,52,31,23,0,72,51,< 0.1,potent inhibitors
"CC(=NNC(=N)N)c1cc(NC(=O)CCC(=O)Nc2cc(C(C)=NNC(=N)N)cc(C(C)=NNC(=N)N)c2)cc(C(C)=NNC(=N)N)c1 [Compound 5, N,N′-bis (3,5-diacetylphenyl) butane diamide tetrakis (amidinohydrazone)]",26,0,70,16,48,35,97,86,< 0.1,potent inhibitors
